{"source": "patent US6338963B1", "about": "“Use of carbon monoxide dependent guanylyl cyclase modifiers to stimulate neuritogenesis” (NeoTherapeutics, Inc., priority 1994, dated 2002)", "tested_on": "PC12 cells", "assay": "Neuritogenesis in PC12 cells", "format": "cell-based, rat", "conditions": "for enhancement of NGF-induced neurite outgrowth: in the presence of NGF, 48 hours; for neurite outgrowth in the absence of NGF: compound alone; for effect of inhibitor on NGF neuritogenic activity / effect on neuritogenic properties of the NO donors: PC12 cells with NGF; for effect of inhibitor on neuritogenic effects of guanosine: PC12 cells with guanosine and NGF", "description": "Much of the work performed in the characterization of the compounds of the present invention involved the use of PC12 cells. These cells are derived from a rat pheochromocytoma and when grown in the presence of NGF, extend neurites, cease cell division and assume many characteristics of sympathetic neurons. When cultured in the absence of nerve growth factor (NGF), few PC12 cells have neurites greater than one cell diameter. Addition of saturating concentrations of NGF for 48 hours stimulates neurite outgrowth in about 20-35% of the cells. Because they constitute a homogeneous population of neuronal-like cells, without contaminating astroglia type cells, it is possible to study the direct effects of the purine based compounds on neurite outgrowth in these cells.\nCells cultured in RPMI 1640 with 1.5% horse serum and 1.5% fetal bovine serum were re-plated onto poly-ornithine coated 24-well culture plates (2.5×10^4 cells per well). AIT-082 and NGF were added to the various cultures immediately upon plating. After 48 hours, medium was removed and the cells irnmediately fixed in 10% formalin and PBS for 10 minutes. Cells and neurites were counted within 2 days of fixation.\nA neurite was defined as a process extending from the cell at least 1 cell body diameter in length and displaying a growth cone at its tip. For each treatment, 2 representative microscope fields were counted from each of 6 sister cultures receiving identical treatments. The total number of cells counted per well (approximately 100 cells) and the total number of cells containing neurites in each well were used to determine fraction of neurite-bearing cells. The mean values (±SEM) were then determined for each of the treatments. To facilitate comparison neurite outgrowth was expressed relative to the proportion of cells bearing neurites in the presence of NGF alone (NGF=100%). The effects of compounds with and without NGF were compared by analysis of variance (ANOVA) followed by Tukey's test for significance.\nThe results are shown in FIG. 3 where the curve represents different levels of AIT-082 plus saturating concentrations (40 ng/ml) NGF. The center horizontal line represents control values for cells cultured in the presence of 40 ng/ml NGF alone. Upper and lower horizontal lines are indicative of confidence limits of NGF alone as determined using standard statistical methods.", "note": "No end group written: not given here.", "data": [{"molecule": "CCOC(=O)CCn1cnc2c(N)ncnc21", "note": "[AIT-0026, 3-(6-amino-9H-purin-9-yl)propionic acid, ethyl ester]", "values": [{"measurement": "modification of neural activity", "value": "failed to modify neural activity"}]}, {"molecule": "O=C(CCn1cnc2c(=O)[nH]cnc21)NCCCN1CCCC1=O", "note": "[AIT-034, 3-(1,6 dihydro-6-oxo-9hpurin-9-yl)-N-(3-(2-oxopyrrolidin-1-yl)propyl) propanamide]", "values": [{"measurement": "modification of neural activity", "value": "failed to modify neural activity"}, {"measurement": "enhancement of NGF-induced neurite outgrowth", "value": "did not enhance NGF-induced neuritogenesis"}]}, {"molecule": "Nc1ncnc2c1ncn2[C@@H]1O[C@H](COP(=O)(O)OP(=O)(O)OP(=O)(O)O)[C@@H](O)[C@H]1O", "note": "[ATP, adenosine triphosphate]", "values": [{"measurement": "neurite outgrowth in the absence of NGF", "value": "did not enhance neuritogenesis"}, {"measurement": "enhancement of NGF-induced neurite outgrowth", "value": "did not enhance neuritogenesis"}]}, {"molecule": "Nc1nc2c(ncn2[C@@H]2O[C@H](COP(=O)(O)OP(=O)(O)O)[C@@H](O)[C@H]2O)c(=O)[nH]1", "note": "[GDP, guanosine diphosphate]", "values": [{"measurement": "enhancement of NGF-induced neurite outgrowth", "value": "neither GDP nor GMP were effective alone or with NGF"}]}, {"molecule": "Nc1nc2c(ncn2[C@@H]2O[C@H](COP(=O)(O)O)[C@@H](O)[C@H]2O)c(=O)[nH]1", "note": "[GMP, guanosine monophosphate]", "values": [{"measurement": "enhancement of NGF-induced neurite outgrowth", "value": "neither GDP nor GMP were effective alone or with NGF"}]}, {"molecule": "O=C1C(Nc2ccccc2)=CC(=O)c2ncccc21", "note": "[LY83583]", "values": [{"measurement": "effect of inhibitor on NGF neuritogenic activity", "value": "the response elicited by NGF was unaffected"}, {"measurement": "effect of inhibitor on neuritogenic effects of guanosine", "value": "inhibited"}]}, {"molecule": "CN(C)c1ccc2nc3ccc(=[N+](C)C)cc-3sc2c1", "note": "[Methylene blue]", "values": [{"measurement": "effect of inhibitor on neuritogenic action of AIT-082", "setting": "PC12 cells", "value": "inhibited the action of AIT-082"}, {"measurement": "effect of inhibitor on NGF neuritogenic activity", "value": "no effect on NGF activity"}, {"measurement": "effect of inhibitor on NGF neuritogenic activity", "setting": "listed as MB", "value": "no effect on NGF-stimulated neurite outgrowth"}, {"measurement": "effect of inhibitor on neuritogenic effects of guanosine", "value": "abolished the synergistic effects of guanosine with NGF"}]}, {"molecule": "CCNC(=O)[C@H]1O[C@@H](n2cnc3c(N)ncnc32)[C@H](O)[C@@H]1O", "note": "[NECA, 5′-N-ethylcarboxamidoadenosine]", "values": [{"measurement": "neurite outgrowth in the absence of NGF", "value": "little stimulation of neurite outgrowth"}, {"measurement": "effect on the actions of guanosine", "setting": "in the presence and absence of NGF", "value": "could synergistically enhance the actions of guanosine"}, {"measurement": "enhancement of NGF-induced neurite outgrowth", "value": "also enhanced neuritogenesis, but not to the same extent as guanosine"}]}, {"molecule": "O=NO", "note": "[SN, sodium nitrite]", "values": [{"measurement": "neurite outgrowth in the absence of NGF", "value": "neither SNP nor SN elicited neurite outgrowth"}, {"measurement": "enhancement of NGF-induced neurite outgrowth", "value": "enhanced NGF-mediated neurite outgrowth in a synergistic manner"}]}, {"molecule": "C=CC1=C(C)c2cc3[n-]c(cc4[n-]c(cc5nc(cc1n2)C(C)=C5C=C)c(C)c4CCC(=O)O)c(CCC(=O)O)c3C.[Zn+2]", "note": "[Zinc protoporphyrin IX]", "values": [{"measurement": "effect of inhibitor on neuritogenic action of AIT-082", "setting": "PC12 cells", "value": "inhibited the action of AIT-082"}, {"measurement": "effect of inhibitor on NGF neuritogenic activity", "value": "no effect on NGF activity"}, {"measurement": "effect of inhibitor on NGF neuritogenic activity", "setting": "listed as ZnPP", "value": "did not affect those of NGF"}, {"measurement": "effect of inhibitor on neuritogenic effects of guanosine", "value": "abolished the neuritogenic effects of guanosine"}]}, {"molecule": "Nc1ncnc2c1ncn2[C@@H]1O[C@H](CO)[C@@H](O)[C@H]1O", "note": "[adenosine]", "values": [{"measurement": "modification of neural activity", "value": "relatively ineffective"}, {"measurement": "neurite outgrowth in the absence of NGF", "value": "slightly increased the proportion of cells with neurites"}, {"measurement": "enhancement of NGF-induced neurite outgrowth", "value": "did not enhance NGF induced neurite outgrowth at any concentration"}]}, {"molecule": "O=c1[nH]cnc2nc[nH]c12", "note": "[hypoxanthine]", "values": [{"measurement": "modification of neural activity", "value": "relatively ineffective"}, {"measurement": "stimulation of neuritogenesis and enhancement of NGF-stimulated neuritogenesis", "setting": "PC12 cells", "value": "weakly effective"}, {"measurement": "enhancement of NGF-induced neurite outgrowth", "value": "the greatest, although still modest, enhancement"}]}, {"molecule": "OC[C@H]1O[C@@H](n2cnc3c(O)ncnc32)[C@H](O)[C@@H]1O", "note": "[inosine]", "values": [{"measurement": "modification of neural activity", "value": "relatively ineffective"}, {"measurement": "stimulation of neuritogenesis and enhancement of NGF-stimulated neuritogenesis", "setting": "PC12 cells", "value": "weakly effective"}, {"measurement": "enhancement of NGF-induced neurite outgrowth", "value": "only slightly enhanced neurite outgrowth"}]}, {"molecule": "CCCn1cnc2c1c(=O)n(CCCCC(C)=O)c(=O)n2C", "note": "[propentofylline]", "values": [{"measurement": "modification of neural activity", "value": "failed to modify neural activity"}]}, {"molecule": "O=c1[nH]c(=O)c2[nH]cnc2[nH]1", "note": "[xanthine]", "values": [{"measurement": "modification of neural activity", "value": "relatively ineffective"}, {"measurement": "concentration toxic to the cells", "setting": "PC12 cells", "value": 300000, "unit": "µM"}, {"measurement": "enhancement of NGF-induced neurite outgrowth", "value": "only slightly enhanced NGF-induced neurite outgrowth"}]}, {"molecule": "ANF: atrial natriuretic factor, a hormone activating particulate guanylyl cyclase (SLRRSSCFGGRMDRIGAQSGLGCNSFRY; ends and bridges not checked; cysteine pairing not given here; UniProt P01160 124-151, looked up)", "values": [{"measurement": "enhancement of NGF-induced neurite outgrowth", "value": "enhanced NGF-stimulated neurite outgrowth"}]}, {"molecule": "Methemoglobin: captures and removes nitric oxide (NO) and carbon monoxide (CO) from the culture media", "values": [{"measurement": "effect of inhibitor on neuritogenic action of AIT-082", "setting": "PC12 cells", "value": "inhibited the action of AIT-082"}, {"measurement": "effect of inhibitor on NGF neuritogenic activity", "value": "no effect on NGF activity"}, {"measurement": "effect on neuritogenic properties of the NO donors", "value": "inhibited"}]}, {"molecule": "copper protoporphyrin IX [CuPP]", "values": [{"measurement": "effect of inhibitor on neuritogenic effects of guanosine", "value": "did not reduce the ability of guanosine to enhance NGF-dependent neurite outgrowth"}]}, {"molecule": "hemoglobin", "values": [{"measurement": "effect of inhibitor on neuritogenic action of AIT-082", "setting": "PC12 cells", "value": "inhibited"}, {"measurement": "effect on neuritogenic properties of the NO donors", "value": "inhibited"}, {"measurement": "effect of inhibitor on neuritogenic effects of guanosine", "value": "inhibited the neuritogenic effects of guanosine"}]}]}
